# Test results taken from patent US20200360311A1, “USE OF 3-METHYLMETHCATHINONE” (MIND MEDICINE, NC., priority 2017, published 2020).
# Legend:
# [1] = Case Study IV: 3-MMC-assisted psychotherapy for PTSD and Generalized Anxiety Disorder (GAD); format: in vivo, human; conditions: person, 200-400 mg twice weekly on two consecutive days for 8 weeks; from week 5 also EMDR with propanolol
# Source text: A person had been suffering from Post traumatic Stress Disorder (PTSD), depression, and General Anxiety Disorder (GAD).
# The symptoms they experienced were panic attacks, hyperventilation, pain in the chest, numbness, and tingling in the extremities, Irritable-Bowel Syndrome (IBS), nightmares, and insomnia.
# The PTSD had been caused by a particular life-threatening event, as well as other related incidences that had unfolded in their youth. The psychological ramifications of these events went undiagnosed for many years, although they were eventually treated for anxiety and depression. They refused however, to take the anti-depressants that their physician was willing to prescribe them, and only occasionally would take 5-10 mg Oxazepam for acute panic attacks.
# At the time that they started with the 3-MMC-assisted psychotherapy, they had been suffering from an occupational burnout for 4 months already cf. DC-10 Z-73.0.
# 3-MMC was administered twice weekly on two consecutive days at a dosage of 200-400 mg each time for a period of 8 weeks. Starting at week 5; 3-MMC-assisted psychotherapy took place once a week. Each session lasted 6.5-10 h with an average of 8.5 h per session. […]
# [2] = Case Study I: 3-MMC-assisted psychotherapy for post-traumatic stress disorder (PTSD); format: in vivo, human; conditions: person, three 3-MMC-assisted psychotherapy sessions, 200 milligrams orally
# Source text: Person suffering from PTSD who was previously incorrectly diagnosed with bipolar disorder, unable to work was under the care of a psychiatrist with no improvement in 4 years. […] In this case, the therapy consisted of both a male and female therapist in a room designed for this therapy (soft lighting, bed, attractive pillows, carefully chosen music, inspirational art—spiritual and nature). The patient was taught relaxation and breathing techniques and briefed in what to expect from the experience. In this case 200 milligrams of 3-MMC was given orally and the patient then lay down on the bed and listened to soothing music for 1.5 hours with eye shades on (internal experience). […] The therapists engaged in psychotherapy for 2 hours after which the patient once again lay down and put on the eyeshades for another 2 hours. Subsequently, the patient re-engaged with the therapists and explored their insights about how they could reframe the traumatic memory to be a positive learning experience.
# [3] = Human subject's perception of 3-MMC's effect after oral administration; format: in vivo; conditions: human subjects
# Procedure: The present inventors have observed that, in some embodiments the onset of human subject's perception of 3-MMC's effect is approximately 30-90 minutes following oral administration, varying according to whether the 3-MMC was administered to a fasting (more rapid onset), or following a meal (less rapid onset). In some cases, the perception of peak effect of 3-MMC in human subjects occurred between 10 to 30 minutes after the initial perception of onset of 3-MMC's effect. The present inventors further observed that the duration of perception of the effect of 3-MMC in human subjects was, in most cases, for no greater than 4 hours following oral administration.
# [4] = animal models, cited from earlier work
# [5] = Case Study III: 3-MMC assisted therapy for relationship distress; format: in vivo, human; conditions: person, four 3-MMC assisted psychotherapy sessions, 300 milligrams orally
# Procedure: Single professional entered in to 3-MMC assisted therapy to understand why their relationships with men never lasted more than a few months. […] In this case the patient was assessed and prepared by the female therapist in two preliminary sessions where the patients relationship history was explored. The patient was encouraged to consider the connection between their experience of their parent's relationship when they were a child and their reaction to men they dated which was coloured by their past history. The location of the therapy was the living room of the therapist which had been prepared with inspirational art and wall hangings. The sound system consisted of headphones and an ipod with soothing/spiritual music. On the treatment days the patient was given 300 milligrams of 3-MMC orally. The treatment session started by the therapist guiding a meditation exercise and then the patient was encouraged to reflect internally by lying down with eyeshades and listening to the music. In this case the internal experience was 20 minutes after which the patient removed the eyeshades and turned off the music and proceeded to express intense emotions which related to their past anger at their parent. […]
# [6] = Case Study II: 3-MMC couple's therapy; format: in vivo, human; conditions: heterosexual couple, 6 sessions over 6 months, 150 milligrams each orally plus booster 100 milligrams 1 hour later
# Source text: Heterosexual couple married for 17 years were caught in a cycle of repetitive conflict over what they both agreed were trivial issues. They described intense, mutual emotional reactivity and angry outbursts which was problematic enough to begin to discuss divorcing. As a last attempt to resolve their conflicts they agreed to participate in once a month 3-MMC couple's therapy. […] In this case the therapy consisted of one therapist who assessed the couple and prepared for the 3-MMC sessions with 2 non-3MMC sessions where the couple was taught a specific communication technique (Non Violent Communication). The space was a normal therapist's office with comfortable furnishings, 3 chairs and an adjoining kitchen. The 3-MMC was given orally which a dosage of 150 milligrams each followed by a booster dosage of 100 milligrams given 1 hour after the first dosage. The couple alternated between periods of listening to relaxing music and conversation, where they explored their own perspectives on how to communicate in relationship both currently and historically. The counsellor would translate some of the couple's statements in the language of non-violent communication and encourage self responsibility. The end of the session occurred 5 hours after the booster dose and a light meal was prepared and served and the couple and therapist ate and debriefed the session. […]
structure (smiles),measurement,setting,value
"CNC(C)C(=O)c1cccc(C)c1 (stereo not drawn) [3-MMC, 3-methylmethcathinone]",level of fear associated with traumatic memories,[1],led the level of associated fear to decrease with each subsequent session
same,clinical outcome of PTSD patient,[2],no longer diagnosable with either PTSD or bipolar and was able to return to gainful employment
same,onset of subject's perception of effect,"[3]; following oral administration, fasting more rapid, following a meal less rapid",30 to 90 min
same,duration of perception of the effect,"[3]; following oral administration, in most cases",≤ 4 h
same,perception of peak effect,"[3]; time after the initial perception of onset of effect, in some cases",10 to 30 min
same,time at which peak serum concentrations are apparent,[4]; after oral administration,5 to 10 min
same,apparent plasma half-life,[4]; after oral ingestion,approximately 0.8 hours
same,outcome of therapy for relationship distress,[5],understood their previously unconscious behaviour pattern
same,outcome of couple's therapy,[6],able to take responsibility for their own problematic behaviour and negotiate a more functional relationship
